In US11147778B2, “Siderophore-polymer conjugates for increasing bacterial sensitivity to antibiotics” (Wisconsin Alumni Research Foundation, priority 2016, dated 2021):
Where two headings read alike, the source gives them in different places.

Legend:
[1] = test system: E. coli ATCC 25922; experiment: Broth microdilution MIC / FICI; assay type: cell-based; settings: Escherichia coli, ATCC25922
Protocol: (§1) Antimicrobial efficacy was assessed by the broth microdilution assay in accordance with NCCLS guidelines (Coyle, Marie B. Manual of antimicrobial susceptibility testing. American Society for Microbiology, 2005). Organisms were grown overnight on non-selective MHA medium in order to obtain single colonies. Three to five morphologically distinct colonies were touched with a sterile pipet tip and transferred to a culture tube containing MHB (4 mL), and the broth culture was incubated at 37° C. until its turbidity matched a 0.5 McFarland Standard. The inoculum was then diluted 1:20 in sterile water, followed by a 1:10 dilution when inoculating wells of a 96-well plate. […] For combinations, the fractional inhibitory concentration index (FICI) was calculated using the following equation: [formula]

[2] = test system: P. aeruginosa ATCC 27853; experiment: Broth microdilution MIC / FICI; assay type: cell-based; settings: Pseudomonas aeruginosa, ATCC27853
Protocol: as §1

[3] = test system: P. aeruginosa PAO1; experiment: Broth microdilution MIC / FICI; assay type: cell-based; settings: Pseudomonas aeruginosa
Protocol: as §1

[4] = test system: P. aeruginosa MDR 24530; experiment: Broth microdilution MIC / FICI; assay type: cell-based; settings: Pseudomonas aeruginosa, MDR24530
Protocol: as §1, with “[formula]” left out

[5] = test system: P. aeruginosa MDR 2638; experiment: Broth microdilution MIC / FICI; assay type: cell-based; settings: Pseudomonas aeruginosa, MDR2638
Protocol: as §1, with “[formula]” left out

[6] = test system: P. aeruginosa MDR 3072; experiment: Broth microdilution MIC / FICI; assay type: cell-based; settings: Pseudomonas aeruginosa, MDR3072
Protocol: as §1, with “[formula]” left out

[7] = test system: P. aeruginosa reference strains (ATCC 27853 and PAO1); experiment: Dose response of growth (OD600) to F127-(DFO-Ga)2/ERY; assay type: cell-based, Pseudomonas aeruginosa; settings: 50 μg/mL ERY alone
[8] = test system: MDR strains (2638, 3072, and 24530) of P. aeruginosa; experiment: Growth inhibition by F127-(DFO-Ga)2/ERY, MDR strains; assay type: cell-based, Pseudomonas aeruginosa; settings: 244 μM F127-(DFO-Ga)2 and/or 50 μg/mL ERY
Protocol: At time points of 0, 1, 2, and 4 hours, a small aliquot was removed from the broth culture, logarithmically diluted in M9 salts, and then spread onto cation-adjusted Mueller-Hinton agar plates. After overnight incubation at 37° C., colonies were counted and the number of CFU/mL was calculated.

[9] = test system: P. aeruginosa ATCC 27853; experiment: Disk diffusion, zones of inhibition; assay type: cell-based, Pseudomonas aeruginosa; settings: for zone of inhibition, A: same disks and plates
Protocol: (§2) Single colonies were grown in MHB to match a 0.5 McFarland standard. A sterile cotton swab was dipped into the various MDR strain inoculums and spread evenly over the surface of the agar plates. Purchased antibiotic-containing disks at fixed concentrations (Table 4) were placed on the surface of each plate and incubated overnight at 37° C. Zones of inhibition were measured the following morning. Measurements included the diameter (d) of the antibiotic disk (6 mm) and are reported in terms of diameters and areas. […] Typically for diameters, R<10, I 11-15, and S>15 where R=resistance, I=intermediate resistance, and S=susceptible.

[10] = test system: P. aeruginosa MDR strain 24530; experiment: Disk diffusion, zones of inhibition; assay type: cell-based, Pseudomonas aeruginosa
Protocol: as §2

[11] = test system: P. aeruginosa MDR strain 3072; experiment: Disk diffusion, zones of inhibition; assay type: cell-based, Pseudomonas aeruginosa
Protocol: as §2

[12] = test system: P. aeruginosa PAO1; experiment: Disk diffusion, zones of inhibition; assay type: cell-based, Pseudomonas aeruginosa
Protocol: as §2

[13] = E. coli ATCC 25922, Example 9, read-out: MIC (Table 7, agent alone)
[14] = E. coli ATCC 25922, antibiotic alone, Table 3, read-out: MIC
[15] = P. aeruginosa ATCC 27853, Example 9, read-out: MIC (Table 7, agent alone)
[16] = P. aeruginosa PAO1, Example 9, read-out: MIC (Table 7, agent alone)
[17] = Pseudomonas aeruginosa, ATCC27853, 27853, disks NVB 30 μg, ERY 15 μg, RIF 5 μg, VAN 30 μg, MHA with or without 256 μM DG-F125, includes 6 mm disk, read-out: zone of inhibition, d
[18] = Pseudomonas aeruginosa, 24530, disks NVB 30 μg, ERY 15 μg, RIF 5 μg, VAN 30 μg, MHA with or without 256 μM DG-F125, includes 6 mm disk, read-out: zone of inhibition, d
[19] = Pseudomonas aeruginosa, 3072, disks NVB 30 μg, ERY 15 μg, RIF 5 μg, VAN 30 μg, MHA with or without 256 μM DG-F125, includes 6 mm disk, read-out: zone of inhibition, d
[20] = Pseudomonas aeruginosa, PAO1, disks NVB 30 μg, ERY 15 μg, RIF 5 μg, VAN 30 μg, MHA with or without 256 μM DG-F125, includes 6 mm disk, read-out: zone of inhibition, d
[21] = PAO1, antibiotic alone, Table 3, read-out: MIC
[22] = MDR 24530, antibiotic alone, read-out: MIC
[23] = MDR 2638, antibiotic alone, read-out: MIC
[24] = MDR 3072, antibiotic alone, read-out: MIC
[25] = Pseudomonas aeruginosa, read-out: zone of inhibition, d

Structure (SMILES) | MIC [1, 13] | MIC [1, 14] | MIC [2] | MIC [2, 15] | MIC ([3]; PAO1) | MIC [3, 16] | MIC [4] | MIC [5] | MIC [6] | zone of inhibition, A [9]; 27853 | zone of inhibition, A ([10]; 24530, same disks and plates) | zone of inhibition, A ([11]; 3072, same disks and plates) | zone of inhibition, A ([12]; PAO1, same disks and plates) | MIC [3, 21] | MIC [4, 22] | MIC [5, 23] | MIC [6, 24] | further results
CC[C@H]1OC(=O)[C@H](C)[C@@H](O[C@H]2C[C@@](C)(OC)[C@@H](O)[C@H](C)O2)[C@H](C)[C@@H](O[C@@H]2O[C@H](C)C[C@H](N(C)C)[C@H]2O)[C@](C)(O)C[C@@H](C)C(=O)[C@H](C)[C@@H](O)[C@]1(C)O [ERY, erythromycin] | 32 µg/mL | 32 µg/mL | 256 µg/mL | > 128 µg/mL | 256 µg/mL | > 128 µg/mL | 512 µg/mL | 512 µg/mL | 512 µg/mL | 95 mm^2 | 0 mm^2 | 0 mm^2 | 64 mm^2 | – | – | – | – | reduction in the OD600 compared to the positive control [7]: approximately 40%; bacterial growth [8]: similarly ineffective; zone of inhibition at 15 µg/disc [9, 17]: 11 mm; A of region where some growth is still visible (in parentheses) ([10]; 24530, same disks and plates): (133) mm^2; d of region where some growth is still visible (in parentheses) ([10]; 24530, same disks and plates): (13) mm; zone of inhibition at 15 µg/disc [10, 18]: 0 mm; A of region where some growth is still visible (in parentheses) ([11]; 3072, same disks and plates): (283) mm^2; d of region where some growth is still visible (in parentheses) ([11]; 3072, same disks and plates): (19) mm; zone of inhibition at 15 µg/disc [11, 19]: 0 mm; zone of inhibition at 15 µg/disc [12, 20]: 9 mm
CO[C@@H]1[C@@H](OC(N)=O)[C@@H](O)[C@H](Oc2ccc3c(O)c(NC(=O)c4ccc(O)c(CC=C(C)C)c4)c(=O)oc3c2C)OC1(C)C [NVB, novobiocin sodium] | 48 µg/mL | 32 µg/mL | 128 µg/mL | > 128 µg/mL | – | > 128 µg/mL | – | – | – | 44 mm^2 | 0 mm^2 | 0 mm^2 | 0 mm^2 | > 512 µg/mL | > 512 µg/mL | > 512 µg/mL | > 512 µg/mL | zone of inhibition at 30 µg/disc [9, 17]: 7.5 mm; zone of inhibition at 30 µg/disc [10, 18]: 0 mm; zone of inhibition at 30 µg/disc [11, 19]: 0 mm; zone of inhibition at 30 µg/disc [12, 20]: 0 mm
CO[C@H]1/C=C/O[C@@]2(C)Oc3c(C)c(O)c4c(O)c(c(/C=N/N5CCN(C)CC5)c(O)c4c3C2=O)NC(=O)/C(C)=C\C=C\[C@H](C)[C@H](O)[C@@H](C)[C@@H](O)[C@@H](C)[C@H](OC(C)=O)[C@@H]1C [RIF, rifampicin] | – | 4 µg/mL | – | – | – | – | – | – | – | 0 mm^2 | 0 mm^2 | 0 mm^2 | 33 mm^2 | 16 µg/mL | 16 µg/mL | 8 µg/mL | 16 µg/mL | MIC ([2]; ATCC 27853, antibiotic alone, Table 3, read-out: MIC): 16 µg/mL; zone of inhibition at 5 µg/disc [9, 17]: 0 mm; zone of inhibition at 5 µg/disc [10, 18]: 0 mm; zone of inhibition at 5 µg/disc [11, 19]: 0 mm; zone of inhibition at 5 µg/disc [12, 20]: 6.5 mm
CN[C@H](CC(C)C)C(=O)N[C@H]1C(=O)N[C@@H](CC(N)=O)C(=O)N[C@H]2C(=O)N[C@H]3C(=O)N[C@H](C(=O)N[C@H](C(=O)O)c4cc(O)cc(O)c4-c4cc3ccc4O)[C@H](O)c3ccc(c(Cl)c3)Oc3cc2cc(c3O[C@@H]2O[C@H](CO)[C@@H](O)[C@H](O)[C@H]2O[C@H]2C[C@](C)(N)[C@H](O)[C@H](C)O2)Oc2ccc(cc2Cl)[C@H]1O [VAN, vancomycin] | – | – | > 1020 µg/mL | – | > 1020 µg/mL | – | 1020 µg/mL | 512 µg/mL | > 1020 µg/mL | 0 mm^2 | 0 mm^2 | 0 mm^2 | 0 mm^2 | – | – | – | – | MIC [1]: 128 µg/mL; zone of inhibition at 30 µg/disc ([9]; Pseudomonas aeruginosa, ATCC27853, read-out: zone of inhibition, d): 0 mm; zone of inhibition at 30 µg/disc [10, 25]: 0 mm; zone of inhibition at 30 µg/disc [11, 25]: 0 mm; A of region where some growth is still visible (in parentheses) ([12]; PAO1, same disks and plates): 64 mm^2; d of region where some growth is still visible (in parentheses) ([12]; PAO1, same disks and plates): 9 mm; zone of inhibition at 30 µg/disc ([12]; Pseudomonas aeruginosa, PAO1, read-out: zone of inhibition, d): 0 mm
